What is called AUC(0-inf) is the area under the concentration-time curve extrapolated to infinity. Lower therefore signals low exposure. Broadly, the AUC(0-t) is the area under the concentration-time curve up to a stated or last time point. A lower AUC(0-t) goes with less exposure. What is called MRT inf is the average time that molecules of a dose stay in the body. As usually defined, the clearance is the rate of elimination divided by the concentration. By half-life is commonly meant the time needed for the level to fall by half in the phase considered. High values mean slow loss, low ones fast loss. Usually Cmax stands for the highest concentration seen after dosing. Broadly, the Tmax is the time at which the peak concentration occurs.

The text below walks through data of patent US8338426B2, “Piperazinyl derivatives useful as modulators of the neuropeptide Y2 receptor” (Janssen Pharmaceutica NV, priority 2007, dated 2012).

Where two headings read alike, the source gives them in different places.

The subject of data set [1] is panel of 50 receptors, ion channels and transporters. Kind of data set: CEREP panel of 50 receptors, ion channels and transporters. In kind it is binding. To be noted: concentrations up to 1 μM. How it is done: (§1) The selectivity of the compound of formula (A) was further evaluated in a large variety of ion-channels, transporters and receptor-binding assays including the Y1 receptor subtype. These assays were performed by CEREP (Celles L'Evescault, France; www.cere.com<http//www.cerea.com>). Selectivity vs the Y5 receptor subtype was evaluated as described in Bonaventure, P., D. Nepomuceno, C. Mazur, B. Lord, D. A. Rudolph, J. A. Jablonowski, N. I. Carruthers and T. W. Lovenberg, J Pharmacol Exp Ther. 2004, 308, 1130.
The compound of formula (A) was assayed by binding in a panel of 50 receptors, ion channels and transporters assays (CEREP) including adenosine (A1,A2A,A3), adrenergic (α1, α2, β1), angiotensin (AT1), dopamine (D1, D2), bradykinin (B2), cholecystokinin (CCKA), galanin (GAL2), melatonin ML1), muscarinic (M1, M2, M3), neurotensin (NTS), neurokinin (NK2, NK3), NPY (Y1, Y2) opiate (m, k, d), serotonin (5-HT1A, 5-HT1B, 5-HT2A, 5-HT3, 5-HT5A, 5-HT6, 5-HT7), somatostatin, vasopressin (V1a), norepinephrine transporter, dopamine transporter and ion channels (sodium, calcium, potassium and chloride).

A further data set deals with T1, Y5 receptor subtype (Homo sapiens, UniProt Q15761).
T1 construct: expressed in transfected cells; host or cells: HEK-293 cells
T1 sequence (Q15761 1-445): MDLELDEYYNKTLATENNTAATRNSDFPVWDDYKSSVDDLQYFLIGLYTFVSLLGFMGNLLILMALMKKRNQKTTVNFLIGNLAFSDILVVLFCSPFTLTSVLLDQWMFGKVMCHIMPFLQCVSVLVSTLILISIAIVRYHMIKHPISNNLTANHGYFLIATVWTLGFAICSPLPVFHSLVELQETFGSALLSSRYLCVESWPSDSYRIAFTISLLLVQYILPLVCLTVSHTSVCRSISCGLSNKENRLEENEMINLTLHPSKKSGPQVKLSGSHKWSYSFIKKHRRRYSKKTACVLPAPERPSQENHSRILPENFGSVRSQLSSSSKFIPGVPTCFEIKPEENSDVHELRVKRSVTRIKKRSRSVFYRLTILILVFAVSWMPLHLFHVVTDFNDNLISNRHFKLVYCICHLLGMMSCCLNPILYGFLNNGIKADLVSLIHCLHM
The data set can be described thus: [125I]PYY binding in HEK-293 cells expressing the Y5 receptor subtype. The conditions noted are these: concentrations up to 10; HEK-293 cells expressing Y5. The protocol: as §1

Data set [2] can be described thus: Pharmacokinetic study in dogs. In kind it is in vivo, male Beagle dog. The conditions noted are these: dog; for Vd: iv, 1 mg/kg. The protocol:
Male Beagle Canines 11-15 kilograms in body weight were used. Three animals received a bolus oral dose of the compound via an oral gavage at a dose of 5 mg/kg. Three animals received a bolus intravenous dose of the compound at a dose of 1 mg/kg in the right cephalic vein. Blood sampling of the cephalic or jugular veins followed dosing over a time course. Blood samples consisted of 4-5 mL samples taken from the vein into heparinized blood collection tubes containing Li Heparin. These blood samples were then centrifuged. The plasma was retained and kept frozen in a −40° C. freezer until processed for analysis. The time course for sampling was as follows: 0.25, 0.5, 1, 2, 4, 8, and 24 hours for oral administration and 0.08, 0.25, 0.5, 1, 2, 4, 8, and 24 hours for intravenous administration. These samples were analyzed by LC-MS/MS. The LC-MS/MS data was analyzed using a non-compartmental model with the software package WinNonlin Version 4.0.1 (Pharsight, Palo Alto, Calif.). All figures plasma level versus time figures were created using GraphPad Prism 4 (San Diego, Calif.).
The compound of formula (A) was formulated in 20% hydroxypropyl-β-cyclodextrine. Oral and intravenous pharmacokinetic parameters for the compound of formula (A) were determined in male Beagles with results as shown in FIG. 3 and Table 3 below.

For data set [3], the system named is amphetamine-induced hyperactivity. Kind of data set: Amphetamine-induced hyperactivity in c57bl6/j mice. The data set is classed as in vivo. To be noted: 3 and 10 mg/kg i.p., amphetamine 3 mg/kg s.c. How it is done:
To the extent that ethanol-induced hyperactivity is mediated, at least partially, by the dopaminergic system, additional experiments were designed to evaluate whether the compound of formula (A) attenuates the hyperactivity induced by amphetamine, an indirect dopamine agonist.
Locomotor activity was measured with a Hamilton Kinder motor monitor infrared beam apparatus equipped with a SmartFrame cage rack throughout which basic movements were recorded. These experiments were conducted using a between subject design. Sessions started when 8-10-week old c57bl6/j mice were located in the test cages and they lasted for 180 min. Amphetamine (3 mg/kg, s.c.) was administered 60 min after the beginning of the session. The compound of formula (A) (1,3,10 mg/kg, i.p.) or vehicle was administered 15 min prior to amphetamine and locomotor activity was measured for an additional 120 min. The average of basic movements recorded for 60 min after amphetamine was calculated for each animal. Data were analyzed with one-way analysis of variance (ANOVA) using Graph Pad.

Setting [4] is: male, beagle, plasma, IV 1 mg/kg.
Setting [5] is: male, beagle, plasma, PO 5 mg/kg.

In the case of `CCN(CC)C(=O)C(c1ccccc1)N1CCN(c2ccc(NC(=O)c3ccccc3-c3cccnc3)cc2F)CC1` (racemic) [Cmpd (A), N-{4-[4-(Diethylcarbamoyl-phenyl-methyl)-piperazin-1-yl]-3-fluoro-phenyl}-2-pyridin-3-yl-benzamide], the “inhibition against each receptor of the panel (except NPY Y2)” value in data set [1] is on record as “less than 50%”. Further, the “competition for specific [125I]PYY receptor binding sites, Y5” value on Y5 receptor subtype is “failed to compete for significant amounts”. Further, the Lambda z in data set [2] (IV 1 mg/kg) amounted to 1.47 h⁻¹. Moreover, in data set [2] (PO 5 mg/kg), the Lambda z worked out at 0.71 h⁻¹. For the same compound, the Vd in data set [2] (male, beagle, plasma, IV 1 mg/kg, read-out: VSS) is 0.57 L/kg. Besides, the Vd in data set [2] (male, beagle, plasma, IV 1 mg/kg, read-out: Vz) turned out to be 0.64 L/kg. In data set [2] (setting [4]), this compound gave an AUC(0-inf) of 1.89 µM·h, an AUC(0-t) of 0.89 µM·h, a C0 of 6.24 µM and a mean residence time MRT inf of 36.6 min. Also, in data set [2] (setting [4]), the clearance was 15.8 mL/min/kg and the half-life is 28.2 min. In data set [2] (setting [5]), this compound gave an AUC(0-inf) of 2.79 µM·h, an AUC(0-t) of 2.73 µM·h, a Cmax of 1.55 µM and an MRT inf of 103 min. In addition, in data set [2] (setting [5]), the Tmax came to 49.8 min and the half-life is 59.4 min. Further, the “effect on amphetamine-induced hyperactivity” value in data set [3] is recorded as “blocked amphetamine-induced hyperactivity”.
